Reference: patent US20240390340A1 (INCYTE CORPORATION, priority 2023, published 2024)

How the values were obtained:
[1] = molecular target: KRAS G12D (Homo sapiens, UniProt P01116, G12D); experiment: GDP-GTP exchange assay (bodipy-GDP/GppNHp, SOS1), KRAS G12D; assay type: biochemical; conditions: bodipy-loaded KRAS G12D 2.5 nM, 4 h pre-incubation; value for the most potent isomer quoted for certain compounds; read-out: G12D (KRAS G12D exchange assay IC50)
Method: (§1) The inhibitor potency of the exemplified compounds was determined in a fluorescence based guanine nucleotide exchange assay, which measures the exchange of bodipy-GDP (fluorescently labeled GOP) for GppNHp (Non-hydrolyzable GTP analog) to generate the active state of KRAS in the presence of SOS1 (guanine nucleotide exchange factor). Inhibitors were serially diluted in DMSO and a volume of 0.1 μL was transferred to the wells of a black low volume 384-well plate. 5 μL/well volume of bodipy-loaded KRAS G12D diluted to 2.5 nM in assay buffer (25 mM Hepes pH 7.5, 50 mM NaCl, 10 mM MgCl2 and 0.01% Brij-35) was added to the plate and pre-incubated with inhibitor for 4 h at r.t. Appropriate controls (enzyme with no inhibitor or with a G12D inhibitor) were included on the plate. The exchange was initiated by the addition of a 5 μL/well volume containing 1 mM GppNHp and 300 nM SOS1 in assay buffer. The 10 μL/well reaction concentration of the bodipy-loaded KRAS G12D, GppNHp, and SOS1 were 2.5 nM, 500 μM, and 150 nM, respectively. The reaction plates were incubated at r.t. for 2 h, a time estimated for complete GDP-GTP exchange in the absence of inhibitor. For the KRAS G12V mutant, similar guanine nucleotide exchange assays were used with 2.5 nM as final concentration for the bodipy loaded KRAS proteins and 3 h incubation after adding GppNHp-SOS1 mixture. A cyclic peptide described to selectively bind G12D mutant (Sakamoto et al., BBRC 484.3 (2017), 605-611) or internal compounds with confirmed binding were used as positive controls in the assay plates. Fluorescence intensities were measured on a PheraStar plate reader instrument (BMG Labtech) with excitation at 485 nm and emission at 520 nm.
(§2) Either GraphPad prism or Genedata Screener SmartFit was used to analyze the data. The IC50 values were derived by fitting the data to a four parameter logistic equation producing a sigmoidal dose-response curve with a variable Hill coefficient.
(§3) The symbol “†” indicates IC50≤100 nM, “††” indicates IC50>100 nM but ≤1 μM; and “†††” indicates IC50 is >1 μM but ≤5 μM, “††††” indicates IC50 is >5 μM but ≤10 μM. “NA” indicates IC50 not available.

[2] = molecular target: KRAS G12V (Homo sapiens, UniProt P01116, G12V); experiment: GDP-GTP exchange assay (bodipy-GDP/GppNHp, SOS1), KRAS G12V; assay type: biochemical; conditions: KRAS G12V mutant; value for the most potent isomer quoted for certain compounds; read-out: G12V (KRAS G12V exchange assay IC50)
Method: as §1, §2, §3

KRAS G12V, sequence (P01116 1-188 isoform P01116-2 G12V): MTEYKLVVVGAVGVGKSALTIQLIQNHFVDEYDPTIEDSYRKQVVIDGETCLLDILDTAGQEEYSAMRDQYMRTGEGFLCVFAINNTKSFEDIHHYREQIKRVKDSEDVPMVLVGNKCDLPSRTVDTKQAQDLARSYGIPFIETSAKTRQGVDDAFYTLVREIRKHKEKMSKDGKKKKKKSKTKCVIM
KRAS G12D, sequence (P01116 1-188 isoform P01116-2 G12D): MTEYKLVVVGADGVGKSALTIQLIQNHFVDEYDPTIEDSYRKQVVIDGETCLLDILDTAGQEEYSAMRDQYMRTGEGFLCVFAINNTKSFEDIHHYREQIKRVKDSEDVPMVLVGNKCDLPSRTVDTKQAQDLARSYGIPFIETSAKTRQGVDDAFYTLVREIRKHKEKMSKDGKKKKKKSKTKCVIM

Compound | IC50 [1] [µM] | IC50 [2] [µM]
Cc1nc2c(F)c(-c3cccc(Cl)c3Cl)c(CCC#N)cc2c2c1cc([C@H]1C[C@H](OC(=O)c3ccccc3)CN1C(=O)C1CC1)n2[C@H]1[C@H]2CN[C@@H]1C2 [Example 87] | ≤ 0.1 | ≤ 0.1
Cc1nc2c(F)c(-c3cccc(Cl)c3Cl)c(CCC#N)cc2c2c1cc([C@H]1C[C@H](CCc3nccn3C)CN1C(=O)C1CC1)n2[C@H]1[C@H]2CN[C@@H]1C2 [Example 89] | ≤ 0.1 | ≤ 0.1
Cc1ncc(CO[C@H]2C[C@H](c3cc4c(C)nc5c(F)c(-c6cccc(Cl)c6Cl)c(CCC#N)cc5c4n3[C@H]3[C@H]4CN[C@@H]3C4)N(C(=O)C3CC3)C2)s1 [Example 90] | ≤ 0.1 | ≤ 0.1
Cc1cccc(CO[C@H]2C[C@H](c3cc4c(C)nc5c(F)c(-c6cccc(Cl)c6Cl)c(CCC#N)cc5c4n3[C@H]3[C@H]4CN[C@@H]3C4)N(C(=O)C3CC3)C2)c1 [Example 91] | ≤ 0.1 | ≤ 0.1
Cc1ccc(CO[C@H]2C[C@H](c3cc4c(C)nc5c(F)c(-c6cccc(Cl)c6Cl)c(CCC#N)cc5c4n3[C@H]3[C@H]4CN[C@@H]3C4)N(C(=O)C3CC3)C2)cc1 [Example 92] | ≤ 0.1 | ≤ 0.1
Cc1nc2c(F)c(-c3cccc(Cl)c3Cl)c(CCC#N)cc2c2c1cc([C@H]1C[C@H](OC(C)c3ccccc3)CN1C(=O)C1CC1)n2[C@H]1[C@H]2CN[C@@H]1C2 (stereo partly shown) [Example 93] | ≤ 0.1 | ≤ 0.1
Cc1nc2c(F)c(-c3cccc(Cl)c3Cl)c(CCC#N)cc2c2c1cc([C@H]1C[C@H](OCc3ccccn3)CN1C(=O)C1CC1)n2[C@H]1[C@H]2CN[C@@H]1C2 [Example 94] | ≤ 0.1 | ≤ 0.1
Cc1nc2c(F)c(-c3cccc(Cl)c3Cl)c(CCC#N)cc2c2c1cc([C@H]1C[C@H](OCc3cccnc3)CN1C(=O)C1CC1)n2[C@H]1[C@H]2CN[C@@H]1C2 [Example 95] | ≤ 0.1 | ≤ 0.1
Cc1nc2c(F)c(-c3cccc(Cl)c3Cl)c(CCC#N)cc2c2c1cc([C@H]1C[C@H](OCc3ccncc3)CN1C(=O)C1CC1)n2[C@H]1[C@H]2CN[C@@H]1C2 [Example 96] | ≤ 0.1 | ≤ 0.1
Cc1nc2c(F)c(-c3cccc(Cl)c3Cl)c(CCC#N)cc2c2c1cc([C@H]1C[C@H](OCc3cncs3)CN1C(=O)C1CC1)n2[C@H]1[C@H]2CN[C@@H]1C2 [Example 97] | ≤ 0.1 | ≤ 0.1
Cc1nc2c(F)c(-c3cccc(Cl)c3Cl)c(CCC#N)cc2c2c1cc([C@H]1C[C@H](OCc3ccccc3C#N)CN1C(=O)C1CC1)n2[C@H]1[C@H]2CN[C@@H]1C2 [Example 98] | ≤ 0.1 | ≤ 0.1
Cc1nc2c(F)c(-c3cccc(Cl)c3Cl)c(CCC#N)cc2c2c1cc([C@H]1C[C@H](OCc3cn(C)nn3)CN1C(=O)C1CC1)n2[C@H]1[C@H]2CN[C@@H]1C2 [Example 100] | ≤ 0.1 | ≤ 0.1
Cc1nc2c(F)c(-c3cccc(Cl)c3Cl)c(CCC#N)cc2c2c1cc([C@H]1C[C@H](OCc3ccn(C)n3)CN1C(=O)C1CC1)n2[C@H]1[C@H]2CN[C@@H]1C2 [Example 101] | ≤ 0.1 | ≤ 0.1
Cc1nc2c(F)c(-c3cccc(Cl)c3Cl)c(CCC#N)cc2c2c1cc([C@H]1C[C@H](Oc3ccccc3)CN1C(=O)C1CC1)n2[C@H]1[C@H]2CN[C@@H]1C2 [Example 103] | ≤ 0.1 | ≤ 0.1
Cc1nc2c(F)c(-c3cccc(Cl)c3Cl)c(CCC#N)cc2c2c1cc([C@H]1C[C@H](OCc3ncco3)CN1C(=O)C1CC1)n2[C@H]1[C@H]2CN[C@@H]1C2 [Example 104] | ≤ 0.1 | 0.1 to 1
Cc1nc2c(F)c(-c3cccc(Cl)c3Cl)c(CCC#N)cc2c2c1cc([C@H]1C[C@H](OCc3cnn(C)n3)CN1C(=O)C1CC1)n2[C@H]1[C@H]2CN[C@@H]1C2 [Example 105] | ≤ 0.1 | ≤ 0.1
Cc1nc2c(F)c(-c3cccc(Cl)c3Cl)c(CCC#N)cc2c2c1cc([C@H]1C[C@H](OCc3cnnn3C)CN1C(=O)C1CC1)n2[C@H]1[C@H]2CN[C@@H]1C2 [Example 106] | ≤ 0.1 | ≤ 0.1
Cc1nc(CO[C@H]2C[C@H](c3cc4c(C)nc5c(F)c(-c6cccc(Cl)c6Cl)c(CCC#N)cc5c4n3[C@H]3[C@H]4CN[C@@H]3C4)N(C(=O)C3CC3)C2)cs1 [Example 107] | ≤ 0.1 | ≤ 0.1

Compound | IC50 [1] [µM] | IC50 [2] [µM]
Cc1nc2c(F)c(-c3cccc(Cl)c3Cl)c(CCC#N)cc2c2c1cc([C@H]1C[C@H](OCc3cncn3C)CN1C(=O)C1CC1)n2[C@H]1[C@H]2CN[C@@H]1C2 [Example 108] | ≤ 0.1 | ≤ 0.1
Cc1nc2c(F)c(-c3cccc(Cl)c3Cl)c(CCC#N)cc2c2c1cc([C@H]1C[C@H](c3ccccc3)CN1C(=O)C1CC1)n2[C@H]1[C@H]2CN[C@@H]1C2 [Example 109] | ≤ 0.1 | ≤ 0.1
Cc1nc2c(F)c(-c3cccc(Cl)c3Cl)c(CCC#N)cc2c2c1cc([C@H]1C[C@H](OCc3cnsc3)CN1C(=O)C1CC1)n2[C@H]1[C@H]2CN[C@@H]1C2 [Example 110] | ≤ 0.1 | ≤ 0.1
Cc1nc2c(F)c(-c3cccc(Cl)c3Cl)c(CCC#N)cc2c2c1cc([C@H]1C[C@H](OCc3cocn3)CN1C(=O)C1CC1)n2[C@H]1[C@H]2CN[C@@H]1C2 [Example 112] | ≤ 0.1 | ≤ 0.1
Cc1cccc(C)c1CO[C@H]1C[C@H](c2cc3c(C)nc4c(F)c(-c5cccc(Cl)c5Cl)c(CCC#N)cc4c3n2[C@H]2[C@H]3CN[C@@H]2C3)N(C(=O)C2CC2)C1 [Example 113] | ≤ 0.1 | ≤ 0.1
Cc1nc2c(F)c(-c3cccc(Cl)c3Cl)c(CCC#N)cc2c2c1cc([C@H]1C[C@H](Oc3cccnc3)CN1C(=O)C1CC1)n2[C@H]1[C@H]2CN[C@@H]1C2 [Example 114] | ≤ 0.1 | ≤ 0.1
Cc1nc2c(F)c(-c3cccc(Cl)c3Cl)c(CCC#N)cc2c2c1cc([C@H]1C[C@H](OCc3c(F)cccc3F)CN1C(=O)C1CC1)n2[C@H]1[C@H]2CN[C@@H]1C2 [Example 115] | ≤ 0.1 | ≤ 0.1
Cc1nc2c(F)c(-c3cccc(Cl)c3Cl)c(CCC#N)cc2c2c1cc([C@H]1C[C@H](OCc3c(Cl)cccc3Cl)CN1C(=O)C1CC1)n2[C@H]1[C@H]2CN[C@@H]1C2 [Example 116] | ≤ 0.1 | ≤ 0.1
Cc1nc2c(F)c(-c3cccc(Cl)c3Cl)c(CCC#N)cc2c2c1cc([C@H]1C[C@H](OCc3ccccc3C(F)(F)F)CN1C(=O)C1CC1)n2[C@H]1[C@H]2CN[C@@H]1C2 [Example 117] | ≤ 0.1 | ≤ 0.1
Cc1ccc(O[C@H]2C[C@H](c3cc4c(C)nc5c(F)c(-c6cccc(Cl)c6Cl)c(CCC#N)cc5c4n3[C@H]3[C@H]4CN[C@@H]3C4)N(C(=O)C3CC3)C2)cc1 [Example 118] | ≤ 0.1 | ≤ 0.1
Cc1nc2c(F)c(-c3cccc(Cl)c3Cl)c(CCC#N)cc2c2c1cc([C@H]1C[C@H](Oc3ccccc3F)CN1C(=O)C1CC1)n2[C@H]1[C@H]2CN[C@@H]1C2 [Example 119] | ≤ 0.1 | ≤ 0.1
Cc1nc2c(F)c(-c3cccc(Cl)c3Cl)c(CCC#N)cc2c2c1cc([C@H]1C[C@H](Oc3ccc(F)cc3)CN1C(=O)C1CC1)n2[C@H]1[C@H]2CN[C@@H]1C2 [Example 120] | ≤ 0.1 | ≤ 0.1
Cc1nc2c(F)c(-c3cccc(Cl)c3Cl)c(CCC#N)cc2c2c1cc([C@H]1C[C@H](Oc3ccc4ccccc4n3)CN1C(=O)C1CC1)n2[C@H]1[C@H]2CN[C@@H]1C2 [Example 121] | ≤ 0.1 | ≤ 0.1
Cc1nc2c(F)c(-c3cccc(Cl)c3Cl)c(CCC#N)cc2c2c1cc([C@H]1C[C@H](Oc3cccc(F)c3)CN1C(=O)C1CC1)n2[C@H]1[C@H]2CN[C@@H]1C2 [Example 122] | ≤ 0.1 | ≤ 0.1
Cc1cc(C)cc(CO[C@H]2C[C@H](c3cc4c(C)nc5c(F)c(-c6cccc(Cl)c6Cl)c(CCC#N)cc5c4n3[C@H]3[C@H]4CN[C@@H]3C4)N(C(=O)C3CC3)C2)c1 [Example 123] | ≤ 0.1 | ≤ 0.1
Cc1cccc(C(F)(F)F)c1CO[C@H]1C[C@H](c2cc3c(C)nc4c(F)c(-c5cccc(Cl)c5Cl)c(CCC#N)cc4c3n2[C@H]2[C@H]3CN[C@@H]2C3)N(C(=O)C2CC2)C1 [Example 124] | 0.1 to 1 | ≤ 0.1
Cc1ccnc(C)c1CO[C@H]1C[C@H](c2cc3c(C)nc4c(F)c(-c5cccc(Cl)c5Cl)c(CCC#N)cc4c3n2[C@H]2[C@H]3CN[C@@H]2C3)N(C(=O)C2CC2)C1 [Example 125] | ≤ 0.1 | ≤ 0.1
